Assay results from patent publication US7056491B2, “Monoterpenes and sesquiterpenes as chemotherapeutic and radiation sensitizers and immunomodulators” (Wisconsin Alumni Research Foundation, priority 2000, dated 2006).

Tests used:
T98G cells = assay: Clonogenic survival, POH pretreatment then doxorubicin, T98G; assay type: cell-based, human; settings: T98G
Description: Referring to FIG. 29, subconfluent cells of T98G cells were treated with varying concentrations of perillyl alcohol (0.1 mM–0.5 mM) for 48 hours and subsequently treated with the indicated dose of doxorubicin (0.01 uM–0.1 uM) for 48 hours. At the end of the treatment, POH-pretreated and untreated cells in the presence and absence of doxorubicin, were harvested, washed with PBS, plated at the desired cell number and incubated for two weeks. The colonies were stained with crystal violet and quantitated. Survival was determined as the ratio of plating efficiencies for each irradiated group to that of the untreated control. […] Doxorubicin at concentrations over 0.1 uM appeared to be toxic to the cells.

[1] = rats, 10% limonene diet for 10 weeks; cited from earlier work
[2] = tested on: 21–26 kD proteins, including small GTP-binding proteins; settings: dose dependent, distal to HMG-CoA reductase; cited from earlier work
rat mammary carcinoma = settings: limonene, Haag et al.; cited from earlier work

Row | Compound | concentrations toxic to the cells (T98G cells) | plasma levels of terpene metabolites [1] [mM] | isoprenylation of 21–26 kD proteins [2] | effect on advanced rat mammary carcinomas (rat mammary carcinoma)
1 | COc1cccc2c1C(=O)c1c(O)c3c(c(O)c1C2=O)C[C@@](O)(C(=O)CO)C[C@@H]3O[C@H]1C[C@H](N)[C@H](O)[C@H](C)O1 [Doxorubicin, reference compound] | over 0.1 uM | – | – | –
2 | C=C(C)[C@H]1CC=C(C)CC1 [limonene] | – | 0.27 | inhibit isoprenylation | regression of advanced rat mammary carcinomas
